Results taken from patent US20250188043A1 (ReproNovo SA, priority 2023, published 2025).

Experiments:
[1] = Stability program: degradation product formation and appearance; type: physicochemical; settings: mixtures of 1% leflutrozole with various excipients, 1 week, 50° C. and 75% relative humidity
From the text: The mixtures of excipients used for this study are as follows: mixture 1 (maltodextrin, microcrystalline cellulose, sodium carboxymethylcellulose, Aerosil 200, Cutina HR; 64:29:5:0.5:1.5 ratio), mixture 2 (microcrystalline cellulose, spray dried lactose, sodium carboxylmethyl starch, Aerosil 200, magnesium stearate; 20:73.5:5:0.5:1 ratio), and mixture 3 (microcrystalline cellulose, mannitol, crospovidone, magnesium stearate; 15:79.5:4:1.5 ratio). The buffered solutions are aqueous.

CYP2C8 = target: T1, CYP2C8 (Homo sapiens, UniProt P10632); assay: CYP inhibition, pooled human liver microsomes, probe substrates; type: in vitro ADME; settings: up to 100 μM
T1 construct: assessed by pooled human liver microsomes using enzyme selective probe substrates; from tissue; host or cells: pooled human liver microsomes
T1 sequence (P10632 1-490): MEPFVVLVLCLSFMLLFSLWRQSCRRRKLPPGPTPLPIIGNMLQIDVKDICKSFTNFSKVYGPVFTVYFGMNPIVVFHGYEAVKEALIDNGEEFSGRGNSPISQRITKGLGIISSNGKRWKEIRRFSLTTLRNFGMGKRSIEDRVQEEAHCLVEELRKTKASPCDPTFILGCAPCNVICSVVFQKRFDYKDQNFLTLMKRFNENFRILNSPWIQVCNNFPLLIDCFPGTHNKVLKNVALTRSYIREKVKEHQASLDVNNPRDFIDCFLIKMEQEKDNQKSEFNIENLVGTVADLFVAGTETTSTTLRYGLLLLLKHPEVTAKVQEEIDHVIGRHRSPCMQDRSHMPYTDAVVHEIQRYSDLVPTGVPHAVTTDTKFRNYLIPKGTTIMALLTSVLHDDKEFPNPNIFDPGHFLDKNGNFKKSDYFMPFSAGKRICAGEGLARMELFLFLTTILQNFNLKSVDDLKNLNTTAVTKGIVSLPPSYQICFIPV

[2] = system: obese and overweight men with hypogonadism and low total motile sperm count; assay: Randomized, double-blind phase IIb trial of oral leflutrozole; type: in vivo, human; settings: for Semen Volume, change from baseline, LS mean difference (95% CI) vs. placebo / Sperm Morphology, change from baseline, LS mean difference (95% CI) vs. placebo / Sperm Motility, change from baseline, LS mean difference (95% CI) vs. placebo / Spermatozoa, change from baseline, LS mean difference (95% CI) vs. placebo / Total Motile Sperm Count, change from baseline, LS mean difference (95% CI) vs. placebo: Week 20; for Estradiol, Initial: baseline; for population with testosterone normalization: day 8 of treatment (2nd visit); for Estradiol, Change: to week 24; for FSH increase / estradiol decrease / mean LH increase: week 24
Method: The primary endpoint of the study is a change in testosterone levels after 24 weeks of treatment. […] Normalization of testosterone, for the purposes of this trial, was considered to be between 300 and 1000 ng/dL (10.4 and 35 nmol/L, respectively). Levels above 1000 ng/dL are furthermore considered abnormal.

N#Cc1ccc(C(F)(c2ccc(C#N)cc2)n2cncn2)cc1 [leflutrozole, 4-[(4-cyanophenyl)-fluoro-(1,2,4-triazol-1-yl)methyl]benzonitrile]
impurities formed [1]: at most 0.5% | IC50 (CYP2C8): > 50 µM | Estradiol, Week 24 Measurement ([2]; 0.1 mg): 12.94 pg/mL | subjects with normalized testosterone (300-1000 ng/dL), number ([2]; 0.1 mg weekly, after 24 weeks): 59 subjects | Semen Volume, change from baseline, LS mean difference (95% CI) vs. placebo ([2]; 0.1 mg): 0.7 mL | Sperm Morphology, change from baseline, LS mean difference (95% CI) vs. placebo ([2]; 0.1 mg): −1.9 % | Sperm Motility, change from baseline, LS mean difference (95% CI) vs. placebo ([2]; 0.1 mg): 2.7 % | Spermatozoa, change from baseline, LS mean difference (95% CI) vs. placebo ([2]; 0.1 mg): 130.4 (−65.3, 10^6/ejaculate | Total Motile Sperm Count, change from baseline, LS mean difference (95% CI) vs. placebo ([2]; 0.1 mg): 86.3 (−24.5, 10^6/ejaculate | Estradiol, Initial ([2]; 0.1 mg): 24.69 pg/mL | population with testosterone normalization ([2]; 0.1 mg): 80.6% | Estradiol, Change ([2]; 0.1 mg): -11.75 pg/mL | FSH increase ([2]; 0.1 mg): 4.836 mlU/mL | estradiol decrease ([2]; 0.1 mg): 11.8 pg/mL | mean LH increase ([2]; 0.1 mg): 2.108 mlU/mL | Estradiol, Week 24 Measurement ([2]; 0.3 mg): 11.84 pg/mL | subjects with normalized testosterone (300-1000 ng/dL), number ([2]; 0.3 mg weekly, after 24 weeks): 62 subjects | Semen Volume, change from baseline, LS mean difference (95% CI) vs. placebo ([2]; 0.3 mg): 0.8 mL | Sperm Morphology, change from baseline, LS mean difference (95% CI) vs. placebo ([2]; 0.3 mg): −2.6 % | Sperm Motility, change from baseline, LS mean difference (95% CI) vs. placebo ([2]; 0.3 mg): −0.1 % | Spermatozoa, change from baseline, LS mean difference (95% CI) vs. placebo ([2]; 0.3 mg): 90.2 (−126.5, 10^6/ejaculate | Total Motile Sperm Count, change from baseline, LS mean difference (95% CI) vs. placebo ([2]; 0.3 mg): 54.2 (−77.3, 10^6/ejaculate | Estradiol, Initial ([2]; 0.3 mg): 24.80 pg/mL | population with testosterone normalization ([2]; 0.3 mg): 89.1% | Estradiol, Change ([2]; 0.3 mg): -12.96 pg/mL | FSH increase ([2]; 0.3 mg): 6.183 mlU/mL | estradiol decrease ([2]; 0.3 mg): 13 pg/mL | mean LH increase ([2]; 0.3 mg): 3.560 mlU/mL | Estradiol, Week 24 Measurement ([2]; 1.0 mg): 8.63 pg/mL | subjects with normalized testosterone (300-1000 ng/dL), number ([2]; 1.0 mg weekly, after 24 weeks): 63 subjects | subjects with normalized testosterone (300-1000 ng/dL), percent ([2]; 1.0 mg weekly, after 24 weeks): 94.0% | Semen Volume, change from baseline, LS mean difference (95% CI) vs. placebo ([2]; 1.0 mg): 1.4 mL | Sperm Morphology, change from baseline, LS mean difference (95% CI) vs. placebo ([2]; 1.0 mg): −4.1 % | Sperm Motility, change from baseline, LS mean difference (95% CI) vs. placebo ([2]; 1.0 mg): −1.2 % | Spermatozoa, change from baseline, LS mean difference (95% CI) vs. placebo ([2]; 1.0 mg): 270.1 (65.0, 10^6/ejaculate | Total Motile Sperm Count, change from baseline, LS mean difference (95% CI) vs. placebo ([2]; 1.0 mg): 127.7 (12.6, 10^6/ejaculate | Estradiol, Initial ([2]; 1.0 mg): 23.47 pg/mL | population with testosterone normalization ([2]; 1.0 mg): 89.1% | Estradiol, Change ([2]; 1.0 mg): -14.84 pg/mL | FSH increase ([2]; 1.0 mg): 8.282 mlU/mL | estradiol decrease ([2]; 1.0 mg): 14.8 pg/mL | mean LH increase ([2]; 1.0 mg): 5.209 mlU/mL | primary endpoint (≥75% of subjects with normalization of testosterone by week 24) ([2]; all leflutrozole treatment groups): met in all leflutrozole treatment groups | changes from baseline vs placebo in triglycerides, HbA1c, glucose and C-reactive protein ([2]; during the study, p>0.05): No statistically significant changes | insulin and HOMA-IR compared with placebo ([2]; leflutrozole treatment groups, none met statistical significance): Consistent decreases | semen volume improvement, LS mean difference (95% CI) ([2]; stated as across all active treatment arms): 1.4 (0.4, 2.3) mL | sperm count compared to placebo (in words) ([2]; weeks 12 and 20, all three treatment arms): increases were observed across all three treatment arms compared to placebo
